From patent US20080287396A1, “Phosphonated Fluoroquinolones, Antibacterial Analogs Thereof, and Methods for the Prevention and Treatment of Bone and Joint Infections” (TARGANTA THERAPEUTICA INC., priority 2005, published 2008)
Read-outs that look alike come from different tables or passages of the source.

Legend:
[1] = Bone powder binding, fluorometric detection; details: 1 mg/ml compound, bone meal powder 10 mg/ml in PBS, 37° C., 1 h
Method in brief: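 LC/MS method: 100 μM compound in 0.1 M Tris-HCl pH 7, 0.15 M NaCl shaken 10 min with or without ground rat tibia, centrifuged, unbound compound measured in supernatant. Fluorometric method: 1 mg/ml compound in 10 mg/ml bone meal/PBS, 1 h at 37 °C, pellet washed. Supernatant fluoroquinolone read at 280/465 nm; bound amount taken as input minus recovered.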

[2] = Levels of bisphosphonated prodrugs in rat tibia in vivo; details: for half-life: female, CD, tibia (bone); for concentration of prodrug present in bone, in words: single IV bolus (49: 18.8; 52: 15.8; 54: 17.4 mg/kg)
Method: In order to investigate the bone binding and rate of decomposition of bisphosphonated fluoroquinolone prodrugs in vivo, rats were treated with bisphosphonated moxifloxacin prodrug 52 or bisphosphonated gatifloxacin prodrug 49 or 54 and the drug content of their tibiae was analyzed at different time points after injection. Female CD rats (age, 57 to 70 days; n=5/group; Charles River, St-Constant, Canada) were administered a single bolus intravenous (tail vein) dose of compound 49, 52 or 54 (dissolved in 0.85% NaCl) at respectively 18.8 mg/kg (equivalent to 9 mg/kg of 15), 15.8 mg/kg (equivalent to 10 mg/kg of 3) and 17.4 mg/kg (equivalent to 10 mg/kg of 15) of body weight. Animals were humanely sacrificed at specified time points after i.v. dosing to evaluate the levels of 49, 52 or 54 in the bone. Tibiae were recovered by dissection, cleaned from soft tissues, ground using a metal ball mill (Retsch MM301™) and kept at −80° C. before determination of the drug concentration of the bone.
The experimentally obtained ground bone powder was suspended in 5% formic acid in methanol (500 mg/1.6 mL). The mixture was vortexed for 10 min and centrifuged for 10 min at 10 000 g. The resulting pellet was dried, weighed and used for the determination of the amount of bisphosphonated prodrug.
For the dosage of the prodrug in the tibia, the standards, QCs (Quality Controls) and blanks were prepared (in duplicate) as follows: to 20 mg of dry blank tibia powder were added a spiking solution (10 μL) of prodrug and 990 μL of buffer (0.1M tris-HCl, pH 7, 0.15M NaCl); the mixture was vortexed for 10 min (RT), centrifuged for 15 min at 10 000 g (RT), the supernatant discarded and the pellet kept for the cleavage procedure. The range of the standards (6 levels) was from 0.05 to 10 μM and the QC levels were 0.075, 0.75 and 7.5 μM.
To each standard, QC, blank and experimental sample tibia bone pellet (20 mg of dry weight) was added 500 μL 6N NaOH for the cleavage of the prodrug into the drug (moxifloxacin 3 or gatifloxacin 15). After an incubation at 50° C. for 1 hour (for 49) or 2 hours (for 52 and 54), the mixture was acidified with 6N HCl (500 μL) and the internal standard (gatifloxacin 15 for 52 and moxifloxacin 3 for 49 and 54) was added. After a centrifugation of 15 min at 10 000 g (RT), the supernatant was extracted on a Strata™ cartridge (30 mg/l ml), using 100% methanol as the eluent. The eluent was evaporated to dryness under a stream of argon and the dried residue was reconstituted in 200 μL of the mobile phase used in the LC/MS analysis by vortexing for 15 min. After centrifugation for 15 min at 10 000 g, 20 μL of the supernatant was injected into the LC/MS analyser.
The quantity of drug resulting from the cleavage of the prodrug was analyzed on an Agilent 1100™ series LC/MSD trap. The supernatant was injected into a Zorbax™ SB-Aq column (2×30 mm, 3.5μ), using 0.1% formic acid in water: 0.1% formic acid in acetonitrile (85:15) as the mobile phase at a flow rate of 0.3 mL/min. […] The detected ions were determined in single reaction mode (SRM).
For the determination of 52, moxifloxacin 3 was analyzed for m/z 402.2 and the internal standard (gatifloxacin 15) for m/z 376.1→332.1.
For the determination of 49 and 54, gatifloxacin 15 was analyzed for m/z 376.1→332.1 and the internal standard (moxifloxacin 3) was analyzed for m/z 402.2.

[3] = rat, single IV bolus (52: 15.8 mg/kg; 54: 17.4 mg/kg), 7-28 days after injection, read-out: half-life of prodrug in bone (tibia) (converted)

half-life ([2]; rat tibia, IV bolus 15.8 mg/kg, 5 min to 24 h, read-out: half-life for the accumulation process in bone) | Compound | Binding to bone (%) Fluorescence [1] | half-life [2, 3] | concentration of prodrug present in bone, in words ([2]; rat tibia)
– | COc1c(N2CCNC(C)C2)c(F)cc2c(=O)c(C(=O)OCC(=O)NC(P(=O)(O)O)P(=O)(O)O)cn(C3CC3)c12 (stereo not shown) [Compound 54, (1,1-Bisphosphonomethylcarbamoyl)methyl 7-(3-methylpiperazin-1-yl)-1-cyclopropyl-6-fluoro-1,4-dihydro-8-methoxy-4-oxoquinoline-3-carboxylate] | 91% | 21 days | high concentrations
< 0.0417 days | COc1c(N2C[C@@H]3CCCN[C@@H]3C2)c(F)cc2c(=O)c(C(=O)OCC(=O)NC(P(=O)(O)O)P(=O)(O)O)cn(C3CC3)c12 [Compound 52, (1,1-Bisphosphonomethylcarbamoyl)methyl 1-cyclopropyl-6-fluoro-1,4-dihydro-7-((4aS,7aS)-octahydropyrrolo[3,4-b]pyridin-6-yl)-8-methoxy-4-oxoquinoline-3-carboxylate] | 98.7% | 20 days | high concentrations
